From ChEMBL document CHEMBL1201862, “PubChem BioAssay data set” (2004)
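Test compounds were applied to cells in 96-well plates for 48 hours at 5 doses. GI50: concentration for 50% inhibition of growth.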 Active and inactive are the calls of the source. Cut-off read from the data, not from the text of the source: active = GI50 up to about 1.1 µM and inactive = higher. Numbered stars: 1 amine (or outer) side, 2 acyl side, 3 side chain; on linkers, the order of the positions; unused ones are H or OH. Bridge positions count the residues as written; N and C are the ends. Square brackets hold non-standard residues; d marks the D form. Peptide text beside a SMILES is read from it. I, II: the chains in the order shown. Actinocin(9to1) = Cc1c2oc3c(C)ccc(C(=O)[*:1])c3nc-2c(C(=O)[*:2])c(N)c1=O; X48 = O=C1CC(C(=O)[*:2])N([*:1])C1; NMeV = CN[CH](C(=O)O)C(C)C; Sar = CNCC(=O)O

What was measured:
Experiment in all cases: DTP human tumour cell line panel, 48 h
OVCAR-8 = test system: OVCAR-8
Malme-3M = test system: Malme-3M
CCRF-CEM = test system: CCRF-CEM
HOP-92 = test system: HOP-92
MOLT-4 = test system: MOLT-4
CAKI-1 = test system: CAKI-1
OVCAR-4 = test system: OVCAR-4
SF-268 = test system: SF-268
HCT-15 = test system: HCT-15
KM12 = test system: KM12
NCI-H460 = test system: NCI-H460
NCI-H522 = test system: NCI-H522
DU-145 = test system: DU-145
HCT-116 = test system: HCT-116
M14 = test system: M14
A498 = test system: A498
SK-MEL-5 = test system: SK-MEL-5
NCI-H23 = test system: NCI-H23
NCI-H226 = test system: NCI-H226
K562 = test system: K562

SMILES | GI50 (OVCAR-8) | GI50 (Malme-3M) | GI50 (CCRF-CEM) | GI50 (HOP-92) | GI50 (MOLT-4) | GI50 (CAKI-1) | GI50 (OVCAR-4) | GI50 (SF-268) | GI50 (HCT-15) | GI50 (KM12) | GI50 (NCI-H460) | GI50 (NCI-H522) | GI50 (DU-145) | GI50 (HCT-116) | GI50 (M14) | GI50 (A498) | GI50 (SK-MEL-5) | GI50 (NCI-H23) | GI50 (NCI-H226) | GI50 (K562)
O=C1NCN(c2ccccc2)C12CCN(CCc1ccc3[nH]c(=S)[nH]c3c1)CC2 | 51.9 µM (inactive) | 15.6 µM (inactive) | 3.15 µM (inactive) | 13.9 µM (inactive) | 41.4 µM (inactive) | > 100 µM (inactive) | > 100 µM (inactive) | 56.9 µM (inactive) | > 100 µM | 27.9 µM (inactive) | 31.8 µM (inactive) | 43.4 µM (inactive) | 39.7 µM (inactive) | 43 µM (inactive) | 19.6 µM (inactive) | 53.6 µM (inactive) | 17.5 µM (inactive) | 65.9 µM (inactive) | – | –
Cc1c2oc3c(C)ccc(C(=O)NC4C(=O)NC(C(C)C)C(=O)N5CC(=O)CC5C(=O)N(C)CC(=O)N(C)C(C(C)C)C(=O)OC4C)c3nc-2c(C(=O)NC2C(=O)NC(C(C)C)C(=O)N3CC(=O)CC3C(=O)N(C)CC(=O)N(C)C(C(C)C)C(=O)OC2C)c(N)c1=O (configuration not stated) (I: TV[X48][Sar][NMeV] / II: TV[X48][Sar][NMeV]; ester I:1-I:C, II:1-II:C; linker I:N-II:N via Actinocin(9to1); configuration not given here) | > 1 µM (active) | > 1 µM (active) | > 1 µM (active) | > 1 µM (active) | > 1 µM (active) | > 1 µM (active) | > 1 µM (active) | – | > 1 µM | – | > 1 µM (active) | – | > 1 µM (active) | > 1 µM (active) | > 1 µM (active) | > 1 µM (active) | > 1 µM (active) | > 1 µM (active) | > 1 µM (active) | > 1 µM (active)
CC(C)(C)OC(=O)N(O)CCCn1cnc2c(N)ncnc21 | > 100 µM (inactive) | > 100 µM (inactive) | > 100 µM (inactive) | > 100 µM (inactive) | > 100 µM (inactive) | – | > 100 µM (inactive) | > 100 µM (inactive) | > 100 µM | > 100 µM (inactive) | > 100 µM (inactive) | > 100 µM (inactive) | > 100 µM (inactive) | > 100 µM (inactive) | > 100 µM (inactive) | > 100 µM (inactive) | > 100 µM (inactive) | > 100 µM (inactive) | > 100 µM (inactive) | > 100 µM (inactive)
Cc1ccccc1[P+](C)(c1ccccc1C)c1ccccc1C | 15 µM (inactive) | 8.18 µM (inactive) | 0.0333 µM (active) | 12.7 µM (inactive) | – | – | 2.96 µM (inactive) | 34.8 µM (inactive) | 19.9 µM | – | 20 µM (inactive) | 5.24 µM (inactive) | 29.2 µM (inactive) | 6.79 µM (inactive) | 7.46 µM (inactive) | 18.5 µM (inactive) | 4.84 µM (inactive) | 10.3 µM (inactive) | 14.6 µM (inactive) | –
O=S(=O)(O)c1ccc2c(/N=N\c3ccc(F)cc3)c(O)c(S(=O)(=O)O)cc2c1 | > 100 µM (inactive) | > 100 µM (inactive) | > 100 µM (inactive) | > 100 µM (inactive) | > 100 µM (inactive) | > 100 µM (inactive) | > 100 µM (inactive) | > 100 µM (inactive) | > 100 µM | > 100 µM (inactive) | – | > 100 µM (inactive) | > 100 µM (inactive) | > 100 µM (inactive) | > 100 µM (inactive) | > 100 µM (inactive) | > 100 µM (inactive) | > 100 µM (inactive) | – | > 100 µM (inactive)
O=c1oc(-c2ccccc2)c(-c2ccccc2)n1-c1ccc(Br)cc1 | 29.2 µM (inactive) | – | 93.8 µM (inactive) | 35.4 µM (inactive) | > 100 µM (inactive) | > 100 µM (inactive) | 27 µM (inactive) | 55 µM (inactive) | > 100 µM | 37.4 µM (inactive) | 62.1 µM (inactive) | 17.2 µM (inactive) | 21 µM (inactive) | 49.7 µM (inactive) | > 100 µM (inactive) | 26.2 µM (inactive) | 76.6 µM (inactive) | 19.8 µM (inactive) | > 100 µM (inactive) | –
Cc1nc2c(O)cc3c4c([nH]c3c2nc1C)C(=O)CCC4 | 2.65 µM (inactive) | 8.93 µM (inactive) | 4.07 µM (inactive) | 11.2 µM (inactive) | 4.91 µM (inactive) | – | 2.87 µM (inactive) | 2.96 µM (inactive) | 11.9 µM | 3.69 µM (inactive) | 3.51 µM (inactive) | – | 1.99 µM (inactive) | 3.01 µM (inactive) | 3.35 µM (inactive) | 19.5 µM (inactive) | 4.76 µM (inactive) | 6.58 µM (inactive) | 25.1 µM (inactive) | 5.06 µM (inactive)
NC(Cc1ccc(S(=O)(=O)O)cc1)C(=O)NC(Cc1ccc(S(=O)(=O)O)cc1)C(=O)O (configuration not stated) | > 100 µM (inactive) | > 100 µM (inactive) | > 100 µM (inactive) | – | > 100 µM (inactive) | > 100 µM (inactive) | > 100 µM (inactive) | > 100 µM (inactive) | > 100 µM | > 100 µM (inactive) | > 100 µM (inactive) | > 100 µM (inactive) | > 100 µM (inactive) | > 100 µM (inactive) | > 100 µM (inactive) | > 100 µM (inactive) | > 100 µM (inactive) | > 100 µM (inactive) | > 100 µM (inactive) | 0.0475 µM (active)
COc1cnc2oc3ccc(O)cc3c2c1-c1ccccc1 | 55.3 µM (inactive) | 40 µM (inactive) | 59.3 µM (inactive) | > 100 µM (inactive) | > 100 µM (inactive) | > 100 µM (inactive) | > 100 µM (inactive) | 4 µM (inactive) | > 100 µM | 83.2 µM (inactive) | > 100 µM (inactive) | > 100 µM (inactive) | > 100 µM (inactive) | 15.2 µM (inactive) | 18.7 µM (inactive) | > 100 µM (inactive) | 61.9 µM (inactive) | 44.7 µM (inactive) | – | 22.1 µM (inactive)
COC(=O)CCCC(=O)NC1=C(Nc2ccccc2)C(=O)c2ccccc2C1=O | 31.9 µM (inactive) | 3.56 µM (inactive) | 22.8 µM (inactive) | 21.8 µM (inactive) | 16.6 µM (inactive) | 20.1 µM (inactive) | 19.3 µM (inactive) | 30.7 µM (inactive) | 15.1 µM | 5.24 µM (inactive) | 16.6 µM (inactive) | 16.9 µM (inactive) | 15.2 µM (inactive) | 16.6 µM (inactive) | 16.1 µM (inactive) | 16.9 µM (inactive) | – | 10.6 µM (inactive) | – | 19.2 µM (inactive)
CC(=O)c1ccc(-c2oc(-c3ccccc3)cc2-c2ccc3c(c2)OCO3)s1 | > 100 µM (inactive) | – | 0.0313 µM (active) | > 100 µM (inactive) | > 100 µM (inactive) | 2.42 µM (inactive) | – | 34.4 µM (inactive) | – | – | 68.5 µM (inactive) | – | > 100 µM (inactive) | > 100 µM (inactive) | 65.3 µM (inactive) | > 100 µM (inactive) | > 100 µM (inactive) | 19.1 µM (inactive) | > 100 µM (inactive) | > 100 µM (inactive)
COc1ccc(OC)c([N+](=O)[O-])c1-c1nc2sccn2c1/C=N/N=C(N)N | > 100 µM (inactive) | 35.2 µM (inactive) | 34.2 µM (inactive) | 23 µM (inactive) | 26.9 µM (inactive) | > 100 µM (inactive) | – | 44.6 µM (inactive) | > 100 µM | 27.6 µM (inactive) | 76.6 µM (inactive) | 58.2 µM (inactive) | > 100 µM (inactive) | 48.4 µM (inactive) | > 100 µM (inactive) | > 100 µM (inactive) | 28.8 µM (inactive) | > 100 µM (inactive) | > 100 µM (inactive) | 43.6 µM (inactive)
Nc1nc(Cl)cc(OCC2(CO)CCCC2)n1 | > 100 µM (inactive) | > 100 µM (inactive) | > 100 µM (inactive) | > 100 µM (inactive) | > 100 µM (inactive) | – | > 100 µM (inactive) | > 100 µM (inactive) | > 100 µM | – | > 100 µM (inactive) | > 100 µM (inactive) | > 100 µM (inactive) | > 100 µM (inactive) | – | > 100 µM (inactive) | > 100 µM (inactive) | > 100 µM (inactive) | > 100 µM (inactive) | > 100 µM (inactive)
C1=C[C@@H]2c3ccc4cnccc4c3NC[C@@H]2C1 | > 100 µM (inactive) | > 100 µM (inactive) | > 100 µM (inactive) | 75.2 µM (inactive) | > 100 µM (inactive) | – | – | > 100 µM (inactive) | > 100 µM | 86.3 µM (inactive) | > 100 µM (inactive) | – | > 100 µM (inactive) | > 100 µM (inactive) | > 100 µM (inactive) | 33.6 µM (inactive) | > 100 µM (inactive) | > 100 µM (inactive) | > 100 µM (inactive) | > 100 µM (inactive)
O=c1[nH]c(=S)[nH]cc1CN1CCOCC1 | > 100 µM (inactive) | > 100 µM (inactive) | > 100 µM (inactive) | > 100 µM (inactive) | > 100 µM (inactive) | > 100 µM (inactive) | > 100 µM (inactive) | > 100 µM (inactive) | > 100 µM | > 100 µM (inactive) | > 100 µM (inactive) | > 100 µM (inactive) | > 100 µM (inactive) | > 100 µM (inactive) | > 100 µM (inactive) | > 100 µM (inactive) | > 100 µM (inactive) | > 100 µM (inactive) | – | > 100 µM (inactive)
